Experiment [1] concerns neurons differentiated from H9-derived spinal cord NSCs. Put plainly: Whole-cell patch clamp electrophysiology of neurons differentiated from H9-derived spinal cord NSCs. Particulars: spontaneous postsynaptic currents, all three drugs. A general note: Patch clamp records ionic current or voltage across a cell membrane.
A further experiment deals with SOX1+/SOX2+/Nestin+ NSCs. Put plainly: Long-term maintenance culture of spinal cord NSCs. The class given is cell-based, human. Conditions: due to differentiation, data not shown.

As to `N[C@@H](CCCP(=O)(O)O)C(=O)O` [APV], the “spiking of neuron after glutamate receptor and GABA-A receptor antagonists” value (shortened to “spiking of neuron”) in experiment [1] was “no change in spiking”.
Take `Cc1c[nH]c(-c2cnc(NCCNc3ccc(C#N)cn3)nc2-c2ccc(Cl)cc2Cl)n1` [CHIR, CHIR99021]: the “culture maintenance over time on omission of the component from maintenance medium” value with SOX1+/SOX2+/Nestin+ NSCs is “failure to sustain cultures”.
In the case of `O=[N+]([O-])c1cc2nc(O)c(O)nc2cc1[N+](=O)[O-]` [DNQX], in experiment [1], the “spiking of neuron” value is recorded as “no change in spiking”.
Regarding `CNC1CCC(N(Cc2cccc(-c3ccncc3)c2)C(=O)c2sc3c(F)ccc(F)c3c2Cl)CC1` (centres unmarked) [Hh-Ag1.5], in the experiment with SOX1+/SOX2+/Nestin+ NSCs, the “culture maintenance over time on omission of the component from maintenance medium” value is reported as “failure to sustain cultures”.
As to picrotoxin, the “spiking of neuron” value in experiment [1] was “no change in spiking”.

The values above are taken from patent publication US20250066724A1, “GENERATION OF HUMAN SPINAL CORD NEURAL STEM CELLS” (THE REGENTS OF THE UNIVERSITY OF CALIFORNIA, priority 2023, published 2025).
